Assay results from patent US9645154B2, “Method for detecting cancer cell” (ARKRAY, Inc., priority 2010, dated 2017).

Legend:
Blood cells = assay: Labeled sugar incorporation, fluorescence microscopy image analysis (false-positive/negative rate); format: cell-based, human
Description: Blood was collected from a human subject using a vacuum blood collection tube (with EDTA•2K). Blood cells were separated using HetaSep (STEMCELL Technologies) in accordance with manufacturer's instructions.
(§1) When performing the hemolyzing treatment, the blood cell fraction collected as described above was hemolyzed using ammonium chloride (STEMCELL Technologies) according to the manufacture's manuals.
(§2) The number of the cells was counted for each cell line using a hemacytometer in accordance with the conventional method, and then 10^5 to 10^6 cells per sample (cell suspension) was aliquoted. Each of the sample was centrifuged to remove the supernatant. Subsequently, 2-NBDG (Wako Pure Chemical Industries, Ltd.; at the final concentration given in Table 3 or 4) dissolved in Dulbecco's PBS (−) was added thereto, and the cells were suspended well. After the reaction, Dulbecco's PBS (−) was added to the mixture, and the resultant was centrifuged to remove the supernatant. The cells were resuspended with Dulbecco's PBS (−) and centrifuged, and the supernatant was removed again. The steps of resuspending cells with Dulbecco's PBS (−), centrifuging and removing the supernatant were then repeated 2 to 3 times, thereby washing the cells thoroughly. The cells were resuspended with Dulbecco's PBS (−), the concentration thereof was adjusted, and then added dropwise to a 384-well plate. The plate was centrifuged to spin down the cells. The image was captured with a fluorescence microscope (Nikon Corp.) using B-2A filter combination (Nikon Corp.). The B-2A set covers the following wavelengths. EX (excitation wavelength): 475±15 nm, DM: 505 nm or longer, BA (fluorescence wavelength) 520 nm or longer.
(§3) The acquired images were analyzed using an image analysis software NIS-ELEMENTS (trade name, Nikon Corp.) to evaluate the fluorescence intensity of the cell. […]

[1] = test system: human prostate cancer cells (PC3); assay: Labeled sugar incorporation, fluorescence microscopy image analysis (positive rate); format: cell-based; settings: hemolyzed, 10 mM, 5 min, 23° C., threshold value 880
Protocol: as §2
(§4) The acquired images were analyzed using an image analysis software NIS-ELEMENTS (trade name, Nikon Corp.) to evaluate the fluorescence intensity of the cell.
(§5) In a manner similar to Example 2, each of human breast adenocarcinoma cells (cell line name: MCF-7; DS Pharma Biomedical Co., Ltd.), human colon adenocarcinoma cells (cell line name: SW620; DS Pharma Biomedical Co., Ltd.), human prostate cancer cells (cell line name: PC3; DS Pharma Biomedical Co., Ltd.), human alveolar epithelial cancer cells (cell line name: NCI-H358; DS Pharma Biomedical Co., Ltd.), human gastric cancer cells (cell line name: SNU-1; ATCC) and human fibrosarcoma cells (cell line name: HT1080; DS Pharma Biomedical Co., Ltd.) was detected with the labeled sugar (2-NBDG).

[2] = test system: human breast adenocarcinoma cells (MCF-7); assay: as above; format: cell-based; settings: hemolyzed, 10 mM, 5 min, 23° C., threshold value 330
Protocol: as §2, §4, §5

[3] = test system: human colon adenocarcinoma cells (SW620); assay: as above; format: cell-based; settings: threshold value 280
Protocol: as §2, §4, §5

[4] = test system: human alveolar epithelial cancer cells (NCI-H358); assay: as above; format: cell-based; settings: hemolyzed, 10 mM, 5 min, 23° C., threshold value 370
Protocol: as §2, §4, §5

[5] = test system: human fibrosarcoma cell line HT1080; assay: as above; format: cell-based; settings: for Positive rate (Cancer cells): Fibrosarcoma, threshold value 370; for Positive rate of cancer cells: fibrosarcoma cell line
Description: In accordance with the conventional method, cultured human fibrosarcoma cell line HT1080 (DS Pharma Biomedical Co., Ltd.) was harvested with trypsin (Invitrogen). The human gastric cancer cell line SNU-1 (ATCC), which is a suspension cell line, was directly harvested without any trypsin treatment. The cell suspension of the harvested cancer cells was centrifuged, and the supernatant was removed. The cells were resuspended with Dulbecco's PBS (−) (Nissui Pharmaceutical Co., Ltd.) and centrifuged, and the supernatant was removed again.
as §1, §2, §3, §5

[6] = fresh blood, Mean luminance, hemolyzed, 10 mM, 5 min, 23° C.
[7] = fresh blood, Total luminance, hemolyzed, 10 mM, 5 min, 23° C.
[8] = hemolyzed, 10 mM, 5 min, 23° C.
[9] = hemolyzed, 10 mM, 5 min, 23° C., threshold value 280 (Colon adenocarcinoma)
[10] = hemolyzed, 10 mM, 5 min, 23° C., threshold value 330 (Breast adenocarcinoma)
[11] = hemolyzed, 10 mM, 5 min, 23° C., threshold value 370 (Alveolar epithelial cancer)
[12] = hemolyzed, 10 mM, 5 min, 23° C., threshold value 370 (Fibrosarcoma)
[13] = hemolyzed, 10 mM, 5 min, 23° C., threshold value 490 (Gastric cancer)
[14] = hemolyzed, 10 mM, 5 min, 23° C., threshold value 880 (Prostate cancer)
[15] = hemolyzed, 0.1 mM, 37° C., 30 min, threshold value 380
[16] = hemolyzed, 1 mM, 37° C., 30 min, threshold value 520
[17] = hemolyzed, 10 mM, 37° C., 30 min, threshold value 1150
[18] = hemolyzed, 4° C., 10 mM, 5 min, threshold value 640
[19] = hemolyzed, 23° C., 10 mM, 5 min, threshold value 640
[20] = hemolyzed, 37° C., 10 mM, 5 min, threshold value 750
[21] = hemolyzed, 5 min, 10 mM, 37° C., threshold value 570
[22] = hemolyzed, 30 min, 10 mM, 37° C., threshold value 880
[23] = hemolyzed, 60 min, 10 mM, 37° C., threshold value 750
[24] = not hemolyzed, 10 mM, 5 min, 23° C.
[25] = single, Glucose conc.: 1 mM, Temp.: 37° C., Time: 30 min, threshold value 280 (Colon adenocarcinoma)
[26] = single, Glucose conc.: 1 mM, Temp.: 37° C., Time: 30 min, threshold value 370 (Fibrosarcoma)
[27] = single, Glucose conc.: 1 mM, Temp.: 37° C., Time: 30 min, threshold value 490 (Gastric cancer)
[28] = without hemolyzing treatment, 0.1 mM, 37° C., 30 min, threshold value 280
[29] = without hemolyzing treatment, 1 mM, 37° C., 30 min, threshold value 330
[30] = without hemolyzing treatment, 10 mM, 37° C., 30 min, threshold value 450 (concentration series)
[31] = without hemolyzing treatment, 4° C., 10 mM, 5 min, threshold value 310
[32] = without hemolyzing treatment, 23° C., 10 mM, 5 min, threshold value 360
[33] = without hemolyzing treatment, 37° C., 10 mM, 5 min, threshold value 390
[34] = without hemolyzing treatment, 5 min, 10 mM, 37° C., threshold value 380
[35] = without hemolyzing treatment, 30 min, 10 mM, 37° C., threshold value 450 (time series)
[36] = without hemolyzing treatment, 60 min, 10 mM, 37° C., threshold value 500
[37] = single, Glucose conc.: 1 mM, Temp.: 37° C., Time: 30 min

O=[N+]([O-])c1ccc(N[C@H]2C(O)O[C@H](CO)[C@@H](O)[C@@H]2O)c2nonc12 (stereo partly drawn) [2-NBDG, 2-[N-(7-nitrobenz-2-oxa-1,3-diazol-4-yl)amino]-2-deoxy-D-glucose]
Negative rate (Blood cells) (Blood cells; [6]): 95.2%
Positive rate of cancer cells (Blood cell data) (Blood cells; [6]): 4.8%
Negative rate (Blood cells) (Blood cells; [7]): 91.0%
Positive rate of cancer cells (Blood cell data) (Blood cells; [7]): 9.0%
Negative rate (Blood cells (fresh blood)) (Blood cells; [8]): 95.2%
Positive rate (Blood cells (fresh blood)) (Blood cells; [8]): 4.8%
Negative rate (Blood cells (fresh blood)) (Blood cells; [9]): 96.6%
Positive rate (Blood cells (fresh blood)) (Blood cells; [9]): 3.4%
Negative rate (Blood cells (fresh blood)) (Blood cells; [10]): 94.2%
Positive rate (Blood cells (fresh blood)) (Blood cells; [10]): 5.8%
Negative rate (Blood cells (fresh blood)) (Blood cells; [11]): 98.3%
Positive rate (Blood cells (fresh blood)) (Blood cells; [11]): 1.7%
Negative rate (Blood cells (fresh blood)) (Blood cells; [12]): 95.2%
Positive rate (Blood cells (fresh blood)) (Blood cells; [12]): 4.8%
Negative rate (Blood cells (fresh blood)) (Blood cells; [13]): 100.0%
Positive rate (Blood cells (fresh blood)) (Blood cells; [13]): 0.0%
Negative rate (Blood cells (fresh blood)) (Blood cells; [14]): 100.0%
Positive rate (Blood cells (fresh blood)) (Blood cells; [14]): 0.0%
Negative rate (Blood cells) (Blood cells; [15]): 100.0%
Positive rate (Blood cells) (Blood cells; [15]): 0.0%
Negative rate (Blood cells) (Blood cells; [16]): 98.9%
Positive rate (Blood cells) (Blood cells; [16]): 1.1%
Negative rate (Blood cells) (Blood cells; [17]): 100.0%
Positive rate (Blood cells) (Blood cells; [17]): 0.0%
Negative rate (Blood cells) (Blood cells; [18]): 100.0%
Positive rate (Blood cells) (Blood cells; [18]): 0.0%
Negative rate (Blood cells) (Blood cells; [19]): 99.2%
Positive rate (Blood cells) (Blood cells; [19]): 0.8%
Negative rate (Blood cells) (Blood cells; [20]): 98.5%
Positive rate (Blood cells) (Blood cells; [20]): 1.5%
Negative rate (Blood cells) (Blood cells; [21]): 99.1%
Positive rate (Blood cells) (Blood cells; [21]): 0.9%
Negative rate (Blood cells) (Blood cells; [22]): 99.7%
Positive rate (Blood cells) (Blood cells; [22]): 0.3%
Negative rate (Blood cells) (Blood cells; [23]): 97.1%
Positive rate (Blood cells) (Blood cells; [23]): 2.9%
Negative rate (Blood cells (fresh blood)) (Blood cells; [24]): 97.9%
Positive rate (Blood cells (fresh blood)) (Blood cells; [24]): 2.1%
Negative rate (Blood cells (fresh blood)) (Blood cells; [25]): 96.6%
Positive rate (Blood cells (fresh blood)) (Blood cells; [25]): 3.4%
Negative rate (Blood cells (fresh blood)) (Blood cells; [26]): 95.2%
Positive rate (Blood cells (fresh blood)) (Blood cells; [26]): 4.8%
Negative rate (Blood cells (fresh blood)) (Blood cells; [27]): 100.0%
Positive rate (Blood cells (fresh blood)) (Blood cells; [27]): 0.0%
Negative rate (Blood cells) (Blood cells; [28]): 100.0%
Positive rate (Blood cells) (Blood cells; [28]): 0.0%
Negative rate (Blood cells) (Blood cells; [29]): 98.5%
Positive rate (Blood cells) (Blood cells; [29]): 1.5%
Negative rate (Blood cells) (Blood cells; [30]): 98.9%
Positive rate (Blood cells) (Blood cells; [30]): 1.1%
Negative rate (Blood cells) (Blood cells; [31]): 99.1%
Positive rate (Blood cells) (Blood cells; [31]): 0.9%
Negative rate (Blood cells) (Blood cells; [32]): 97.9%
Positive rate (Blood cells) (Blood cells; [32]): 2.1%
Negative rate (Blood cells) (Blood cells; [33]): 99.0%
Positive rate (Blood cells) (Blood cells; [33]): 1.0%
Negative rate (Blood cells) (Blood cells; [34]): 98.6%
Positive rate (Blood cells) (Blood cells; [34]): 1.4%
Negative rate (Blood cells) (Blood cells; [35]): 98.9%
Positive rate (Blood cells) (Blood cells; [35]): 1.1%
Negative rate (Blood cells) (Blood cells; [36]): 91.2%
Positive rate (Blood cells) (Blood cells; [36]): 8.8%
Positive rate (Cancer cells) [1]: 69.8%
Positive rate (Cancer cells) [2]: 100.0%
Positive rate (Cancer cells) [3, 8]: 100.0%
Positive rate (Cancer cells) [3, 37]: 100.0%
Positive rate (Cancer cells) [4]: 83.0%
Positive rate (Cancer cells) [5, 8]: 100.0%
Positive rate (Cancer cells) [5, 37]: 100.0%
Positive rate of cancer cells ([5]; Mean luminance, hemolyzed, 10 mM, 5 min, 23° C., threshold value 436): 100.0%
Positive rate of cancer cells ([5]; Total luminance, hemolyzed, 10 mM, 5 min, 23° C., threshold value 35,000): 90.7%
Positive rate (Fibrosarcoma cell line) [5, 8]: 100.0%
Positive rate (HT1080 cells) [5, 15]: 33.3%
Positive rate (HT1080 cells) [5, 16]: 73.1%
Positive rate (HT1080 cells) [5, 17]: 95.0%
Positive rate (HT1080 cells) [5, 18]: 79.0%
Positive rate (HT1080 cells) [5, 19]: 81.1%
Positive rate (HT1080 cells) [5, 20]: 89.4%
Positive rate (HT1080 cells) [5, 21]: 119.8%
Positive rate (HT1080 cells) [5, 22]: 107.8%
Positive rate (HT1080 cells) [5, 23]: 102.9%
Positive rate (Fibrosarcoma cell line) [5, 24]: 92.6%
Positive rate (HT1080 cells) [5, 28]: 51.8%
Positive rate (HT1080 cells) [5, 29]: 89.5%
Positive rate (HT1080 cells) [5, 30]: 90.0%
Positive rate (HT1080 cells) [5, 31]: 94.9%
Positive rate (HT1080 cells) [5, 32]: 92.6%
Positive rate (HT1080 cells) [5, 33]: 101.5%
Positive rate (HT1080 cells) [5, 34]: 92.6%
Positive rate (HT1080 cells) [5, 35]: 97.1%
Positive rate (HT1080 cells) [5, 36]: 98.4%
